Assay [1] has as its target T1, ΔF508-CFTR (Homo sapiens, UniProt P13569, DEL508-508).
T1 construct: host or cells: CFBE41o-, doxycycline-inducible
As to the kind of experiment: CFTR cell surface levels using HRP-tagged ΔF508-CFTR expressing CFBE cells, intrinsic corrector capacity. The assay is classed as cell-based. On the set-up: % Activation: concentration or dose not given beside the values. Particulars: HRP-tagged ΔF508-CFTR expressing CFBE41o- cells, compound alone (intrinsic corrector capacity), 20 hours at 33° C.; for EC50: read-out: EC50. Summed up:
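Surface ΔF508-CFTR was measured as HRP chemiluminescence from an extracellular-loop-4 tag, expressed as percent activity between DMSO and a […] corrector control.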

The target of assay [2] is T1, ΔF508-CFTR. Put plainly: CFTR cell surface levels using HRP-tagged ΔF508-CFTR expressing CFBE cells, in the presence of a co-corrector. The assay is classed as cell-based. Particulars: HRP-tagged ΔF508-CFTR CFBE cells, in the presence of 3 μM co-corrector; for EC50: read-out: EC50. An outline of the steps: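 Chemiluminescent read-out of surface HRP (15 min, dark) after PBS washes. Activity is normalized as 100×(sample−DMSO)/(3 μM co-corrector alone−DMSO).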

The term EC50 denotes the concentration needed to bring the measured effect to its halfway point.

T1 sequence (P13569 with tags, fused parts or gaps DEL508-508): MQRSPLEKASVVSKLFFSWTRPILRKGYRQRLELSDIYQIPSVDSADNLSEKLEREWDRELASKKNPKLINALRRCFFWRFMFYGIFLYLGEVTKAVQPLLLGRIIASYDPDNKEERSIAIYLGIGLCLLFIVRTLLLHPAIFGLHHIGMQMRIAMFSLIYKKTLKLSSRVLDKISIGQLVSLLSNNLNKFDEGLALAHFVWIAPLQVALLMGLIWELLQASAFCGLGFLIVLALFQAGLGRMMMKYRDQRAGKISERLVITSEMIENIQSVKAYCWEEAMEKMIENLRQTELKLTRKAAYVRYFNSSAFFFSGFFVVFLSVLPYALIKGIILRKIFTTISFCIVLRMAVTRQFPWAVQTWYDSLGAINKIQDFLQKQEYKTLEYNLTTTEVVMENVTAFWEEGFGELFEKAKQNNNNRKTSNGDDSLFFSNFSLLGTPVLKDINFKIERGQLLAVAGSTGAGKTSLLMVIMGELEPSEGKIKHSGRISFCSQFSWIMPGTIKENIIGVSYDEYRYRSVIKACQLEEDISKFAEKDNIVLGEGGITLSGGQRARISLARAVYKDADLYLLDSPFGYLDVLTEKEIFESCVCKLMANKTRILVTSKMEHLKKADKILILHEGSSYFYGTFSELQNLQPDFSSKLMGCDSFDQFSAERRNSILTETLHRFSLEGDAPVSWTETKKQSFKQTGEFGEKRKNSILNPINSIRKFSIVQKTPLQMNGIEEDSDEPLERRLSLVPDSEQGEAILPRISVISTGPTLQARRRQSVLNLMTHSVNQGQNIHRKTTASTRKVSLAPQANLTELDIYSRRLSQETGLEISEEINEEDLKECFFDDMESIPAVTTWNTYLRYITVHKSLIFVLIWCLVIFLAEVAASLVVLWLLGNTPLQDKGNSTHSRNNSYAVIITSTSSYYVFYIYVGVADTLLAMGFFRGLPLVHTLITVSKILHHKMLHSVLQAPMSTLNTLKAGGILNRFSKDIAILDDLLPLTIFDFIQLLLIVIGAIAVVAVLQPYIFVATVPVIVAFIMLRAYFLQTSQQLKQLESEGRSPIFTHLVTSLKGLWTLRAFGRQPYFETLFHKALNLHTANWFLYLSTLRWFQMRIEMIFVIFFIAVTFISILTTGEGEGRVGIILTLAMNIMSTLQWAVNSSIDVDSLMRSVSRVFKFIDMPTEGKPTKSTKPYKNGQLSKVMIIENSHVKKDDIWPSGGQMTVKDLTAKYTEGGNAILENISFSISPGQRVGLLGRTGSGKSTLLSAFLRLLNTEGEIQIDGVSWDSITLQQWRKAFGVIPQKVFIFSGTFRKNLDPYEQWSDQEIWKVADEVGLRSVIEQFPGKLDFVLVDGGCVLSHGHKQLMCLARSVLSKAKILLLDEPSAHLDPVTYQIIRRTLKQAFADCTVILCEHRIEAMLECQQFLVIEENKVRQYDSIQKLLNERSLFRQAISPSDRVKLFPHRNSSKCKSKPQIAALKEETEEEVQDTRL

For `COCCS(=O)(=O)NC(=O)c1cc(N2CCC(CN3CCCC3)CC2)c2c(C3CCC3)nn(-c3ccccc3)c2n1` [Compound 464, 3-cyclobutyl-N-(2-methoxyethanesulfonyl)-1-phenyl-4-{4-[(pyrrolidin-1-yl)methyl]piperidin-1-yl}-1H-pyrazolo[3,4-b]pyridine-6-carboxamide], the figures for the “% Activation” value on ΔF508-CFTR [1] and on ΔF508-CFTR [2] were 277.5% and 423.3%, respectively. The EC50 at ΔF508-CFTR [1] came to 306 nM; on ΔF508-CFTR [2], 170 nM.

On to `CC(C)(C)S(=O)(=O)NC(=O)c1cc(N2CCC(CN3CCCC3)CC2)c2c(C3CCC3)nn(-c3ccccc3)c2n1` [Compound 465, 3-cyclobutyl-N-(2-methylpropane-2-sulfonyl)-1-phenyl-4-{4-[(pyrrolidin-1-yl)methyl]piperidin-1-yl}-1H-pyrazolo[3,4-b]pyridine-6-carboxamide], for which, on ΔF508-CFTR [1], the “% Activation” value is recorded as 131.6% and the EC50 was 313 nM. In addition, on ΔF508-CFTR [2], the “% Activation” value was determined as 293.15% and the EC50 is 360 nM.

Consider `CCS(=O)(=O)NC(=O)c1cc(N2CCC(N3CCOCC3)CC2)c2c(C3CCC3)nn(-c3ccc(F)cc3)c2n1` [Compound 466, 3-cyclobutyl-N-(ethanesulfonyl)-1-(4-fluorophenyl)-4-[4-(morpholin-4-yl)piperidin-1-yl]-1H-pyrazolo[3,4-b]pyridine-6-carboxamide], for which, at ΔF508-CFTR [1], the “% Activation” value is recorded as 318.7% and the EC50 stood at 176 nM. In addition, on ΔF508-CFTR [2], the “% Activation” value was 522.47% and the EC50 was 64.1 nM.

For `CN(C)S(=O)(=O)NC(=O)c1cc(-c2ccc(CN3CCOCC3)cc2)c2c(C3CCC3)nn(C3CCCCC3)c2n1` [Compound 475, 3-cyclobutyl-1-cyclohexyl-N-(dimethylsulfamoyl)-4-{4-[(morpholin-4-yl)methyl]phenyl}-1H-pyrazolo[3,4-b]pyridine-6-carboxamide], on ΔF508-CFTR [1], the “% Activation” value came out at 140.1% and the EC50 amounted to 179 nM. For the same compound, on ΔF508-CFTR [2], the “% Activation” value is listed as 289.95% and the EC50 was 112 nM.

For the compound `CN(C)S(=O)(=O)NC(=O)c1cc(-c2ccc(CCN3CCOCC3)cc2)c2c(C3CCC3)nn(C3CCCCC3)c2n1` [Compound 476, 3-cyclobutyl-1-cyclohexyl-N-(dimethylsulfamoyl)-4-{4-[2-(morpholin-4-yl)ethyl]phenyl}-1H-pyrazolo[3,4-b]pyridine-6-carboxamide], at ΔF508-CFTR [1], the “% Activation” value is 134.2% and the EC50 worked out at 215 nM. At ΔF508-CFTR [2], the “% Activation” value turned out to be 355.65% and the EC50 came out at 151 nM.

As to `C#CCCS(=O)(=O)NC(=O)c1cc(N2CCC(N3CCOCC3)CC2)c2c(C3CCC3)nn(-c3ccc(F)cc3)c2n1` [Compound 477, N-(but-3-yne-1-sulfonyl)-3-cyclobutyl-1-(4-fluorophenyl)-4-[4-(morpholin-4-yl)piperidin-1-yl]-1H-pyrazolo[3,4-b]pyridine-6-carboxamide], at ΔF508-CFTR [1], the “% Activation” value is 341.4% and the half-maximal effective concentration (EC50) amounted to 117 nM. On ΔF508-CFTR [2], the “% Activation” value amounted to 536.7% and the EC50 amounted to 34.7 nM.

For the compound `CCS(=O)(=O)NC(=O)c1cc(N2CCC(N3CCCCC3)CC2)c2c(C3CCC3)nn(-c3ccc(F)cc3)c2n1` [Compound 478, 4-([1,4'-bipiperidin]-1'-yl)-3-cyclobutyl-N-(ethanesulfonyl)-1-(4-fluorophenyl)-1H-pyrazolo[3,4-b]pyridine-6-carboxamide], at ΔF508-CFTR [1], the “% Activation” value is given as 295.4% and the EC50 was determined as 2640 nM. Moreover, at ΔF508-CFTR [2], the “% Activation” value is on record as 476.7% and the EC50 worked out at 127 nM.

`CN(C)S(=O)(=O)NC(=O)c1cc(-c2ccc(CN3CCOCC3)cc2)c2c(OC3CCC3)nn(C3CCCCC3)c2n1` [Compound 481, 3-(cyclobutyloxy)-1-cyclohexyl-N-(dimethylsulfamoyl)-4-{4-[(morpholin-4-yl)methyl]phenyl}-1H-pyrazolo[3,4-b]pyridine-6-carboxamide]: at ΔF508-CFTR [1], the “% Activation” value stood at 114.2% and the EC50 turned out to be 278 nM. Moreover, on ΔF508-CFTR [2], the “% Activation” value was 285.65% and the EC50 turned out to be 154 nM.

Regarding `CC(C)N(C)S(=O)(=O)NC(=O)c1cc(N2CCC(N3CCOCC3)CC2)c2c(C3CCC3)nn(-c3ccc(F)cc3)c2n1` [Compound 482, 3-cyclobutyl-1-(4-fluorophenyl)-N-[methyl(propan-2-yl)sulfamoyl]-4-[4-(morpholin-4-yl)piperidin-1-yl]-1H-pyrazolo[3,4-b]pyridine-6-carboxamide], on ΔF508-CFTR [1], the “% Activation” value is listed as 214.1% and the EC50 turned out to be 88.2 nM. For the same compound, at ΔF508-CFTR [2], the “% Activation” value was 436.4% and the EC50 came out at 61.6 nM.

On to `CCN(C)S(=O)(=O)NC(=O)c1cc(N2CCC(N3CCOCC3)CC2)c2c(C3CCC3)nn(-c3ccc(F)cc3)c2n1` [Compound 483, 3-cyclobutyl-N-[ethyl(methyl)sulfamoyl]-1-(4-fluorophenyl)-4-[4-(morpholin-4-yl)piperidin-1-yl]-1H-pyrazolo[3,4-b]pyridine-6-carboxamide], for which, at ΔF508-CFTR [1], the “% Activation” value came out at 212.7% and the EC50 worked out at 84.9 nM. Besides, at ΔF508-CFTR [2], the “% Activation” value turned out to be 438.2% and the EC50 stood at 56.1 nM.

Take `O=C(NS(=O)(=O)N1CCCC1)c1cc(N2CCC(N3CCOCC3)CC2)c2c(C3CCC3)nn(-c3ccc(F)cc3)c2n1` [Compound 485, 3-cyclobutyl-1-(4-fluorophenyl)-4-[4-(morpholin-4-yl)piperidin-1-yl]-N-(pyrrolidine-1-sulfonyl)-1H-pyrazolo[3,4-b]pyridine-6-carboxamide]: on ΔF508-CFTR [1], the “% Activation” value came to 218.55% and the EC50 stood at 155 nM. On ΔF508-CFTR [2], the “% Activation” value is reported as 399.1% and the EC50 was determined as 90.2 nM.

On to `O=C(NS(=O)(=O)CC(F)(F)F)c1cc(N2CCC(N3CCOCC3)CC2)c2c(C3CCC3)nn(-c3ccc(F)cc3)c2n1` [Compound 486, 3-cyclobutyl-1-(4-fluorophenyl)-4-[4-(morpholin-4-yl)piperidin-1-yl]-N-(2,2,2-trifluoroethanesulfonyl)-1H-pyrazolo[3,4-b]pyridine-6-carboxamide], for which, on ΔF508-CFTR [1], the “% Activation” value was determined as 332.5% and the EC50 was 467 nM. Moreover, on ΔF508-CFTR [2], the “% Activation” value is given as 569% and the EC50 was 181 nM.

Consider `COCCS(=O)(=O)NC(=O)c1cc(N2CCC(N3CCCCC3)CC2)c2c(C3CCC3)nn(-c3ccc(F)cc3)c2n1` [Compound 488, 4-([1,4'-bipiperidin]-1'-yl)-3-cyclobutyl-1-(4-fluorophenyl)-N-(2-methoxyethanesulfonyl)-1H-pyrazolo[3,4-b]pyridine-6-carboxamide], for which, at ΔF508-CFTR [1], the “% Activation” value turned out to be 246.55% and the EC50 turned out to be 655 nM. Further, at ΔF508-CFTR [2], the “% Activation” value is reported as 488.15% and the EC50 is 683 nM.

As for `CC(C)c1nn(-c2ccnc(N3CCOCC3)c2)c2nc(C(=O)NS(=O)(=O)N(C)C)cc(OCC3CCOCC3)c12` [Compound 489, N-(dimethylsulfamoyl)-1-[2-(morpholin-4-yl)pyridin-4-yl]-4-[(oxan-4-yl)methoxy]-3-(propan-2-yl)-1H-pyrazolo[3,4-b]pyridine-6-carboxamide], on ΔF508-CFTR [1], the “% Activation” value was determined as 99.6% and the EC50 was found to be 141 nM. On ΔF508-CFTR [2], the “% Activation” value came to 280% and the EC50 stood at 241 nM.

Values taken from patent US10259810B2, “N-sulfonylated pyrazolo[3,4-b]pyridin-6-carboxamides and method of use” (AbbVie S.à.r.l., priority 2015, dated 2019).
